Measured values published in ChEMBL document CHEMBL3407452, “Linear and branched alkyl-esters and amides of gallic acid and other (mono-, di- and tri-) hydroxy benzoyl derivatives as promising anti-HCV inhibitors” (Eur J Med Chem, 2015).
Active and inactive are the calls of the source. No cut-off for these calls is given here.

Columns and labels:
[1] = tested on: Human immunodeficiency virus 1; experiment: Antiviral activity against HIV1 3B infected in human CEM cells assessed as reduction in virus-induced cytopathicity after 4 to 5 days by microscopy based syncytium cell formation assay; type: functional, organism-based, CCRF-CEM; conditions: Human immunodeficiency virus 1, 3B, CCRF-CEM; read-out: EC50
[2] = tested on: Human immunodeficiency virus 2; experiment: Antiviral activity against HIV2 ROD infected in human CEM cells assessed as reduction in virus-induced cytopathicity after 4 to 5 days by microscopy based syncytium cell formation assay; type: functional, organism-based, ISOLATE ROD, CCRF-CEM; conditions: Human immunodeficiency virus 2, ISOLATE ROD, CCRF-CEM; read-out: EC50
[3] = Cytotoxicity against human CEM cells assessed as inhibition of cell proliferation; type: cell-based; conditions: CEM cells (CCRF-CEM)
Hepatitis C virus = experiment: Antiviral activity against HCV genotype 1b I389luc-ubi-neo/NS3-3'/5.1 replicons infected in human Huh5-2 HCV subgenomic replicon-containing cells assessed as reduction in virus replication after 3 days by luciferase reporter gene assay; type: functional, Hepacivirus hominis; conditions: Hepatitis C virus, genotype 1b, Huh-5-2, 72 h; for EC50: read-out: EC50
[4] = Cytotoxicity against human Huh5-2 cells after 72 hrs by MTS assay; type: cell-based, Huh-5-2
Vaccinia virus = experiment: Antiviral activity against vaccinia virus; type: functional, organism-based; conditions: Orthopoxvirus vaccinia
[5] = tested on: Vesicular stomatitis virus; experiment: Antiviral activity against vesicular stomatitis virus; type: functional, organism-based
Coxsackievirus B4 = experiment: Antiviral activity against human coxsackievirus B4; type: functional, organism-based
[6] = tested on: Respiratory syncytial virus; experiment: Antiviral activity against RSV; type: functional, organism-based
Human respirovirus 3 = experiment: Antiviral activity against human parainfluenza virus 3; type: functional, organism-based
Reovirus sp. = experiment: Antiviral activity against reovirus; type: functional, organism-based
Sindbis virus = experiment: Antiviral activity against sindbis virus; type: functional, organism-based
Influenza A virus H3N2 = experiment: Antiviral activity against influenza A virus H3N2; type: functional, organism-based
Influenza A virus = experiment: Antiviral activity against influenza A virus (H1N1); type: functional, organism-based
Punta Toro virus = experiment: Antiviral activity against punta toro virus; type: functional, organism-based
Feline coronavirus = experiment: Antiviral activity against feline coronavirus; type: functional, organism-based
Felid alphaherpesvirus 1 = experiment: Antiviral activity against feline herpesvirus; type: functional, organism-based
Chikungunya virus = experiment: Antiviral activity against chikungunya virus; type: functional
[7] = Selectivity index, ratio of CC50 for human CEM cells to EC50 for HIV1 3B; type: toxicity, cell-based, CCRF-CEM; conditions: read-out: Ratio CC50/EC50

SMILES | EC50 [1] [µM] | EC50 [2] [µM] | CC50 [3] [µM] | EC90 (Hepatitis C virus) [µM] | EC50 (Hepatitis C virus) [µM] | CC50 at 72 h [4] [µM] | Activity (Vaccinia virus) | Activity [5] | Activity (Coxsackievirus B4) | Activity [6] | Activity (Human respirovirus 3) | Activity (Reovirus sp.) | Activity (Sindbis virus) | Activity (Influenza A virus H3N2) | Activity (Influenza A virus) | Activity (Punta Toro virus) | Activity (Feline coronavirus) | Activity (Felid alphaherpesvirus 1) | Activity (Chikungunya virus) | selectivity ratio [7]
CCCCCOC(=O)c1cc(O)c(O)c(O)c1 [PENTYL GALLATE] | 14 | ≥ 10 | 47 | > 50 | 14 | > 50 | inactive | inactive | inactive | inactive | inactive | inactive | inactive | inactive | inactive | inactive | inactive | inactive | inactive | 
CCCCCCOC(=O)c1cc(O)c(O)c(O)c1 [HEXYL GALLATE] | 5.4 | 6.6 | 14 | > 50 | 9 | > 50 | inactive | inactive | inactive | inactive | inactive | inactive | inactive | inactive | inactive | inactive | inactive | inactive | inactive | 
O=C(NCCCCN(CCCNC(=O)c1cc(O)c(O)c(O)c1)C(=O)c1cc(O)c(O)c(O)c1)c1cc(O)c(O)c(O)c1 | 18 |  | 107 |  |  |  | inactive | inactive | inactive | inactive | inactive | inactive | inactive | inactive | inactive | inactive | inactive | inactive | inactive | 6
O=C(NCCCCCCCCNC(=O)c1ccc(O)c(O)c1O)c1ccc(O)c(O)c1O | > 50 | > 50 | 82 |  | 25 | 34 | inactive | inactive | inactive | inactive | inactive | inactive | inactive | inactive | inactive | inactive | inactive | inactive | inactive | 
O=C(NCCCCCCCCCCCCNC(=O)c1cc(O)c(O)c(O)c1)c1cc(O)c(O)c(O)c1 | 19 | 26 | 58 | > 100 | 27 | > 100 | inactive | inactive | inactive | inactive | inactive | inactive | inactive | inactive | inactive | inactive | inactive | inactive | inactive | 
O=C(NCCCCCCCCCCNC(=O)c1cc(O)c(O)c(O)c1)c1cc(O)c(O)c(O)c1 | > 50 | > 50 | 86 |  | 20 | 47 | inactive | inactive | inactive | inactive | inactive | inactive | inactive | inactive | inactive | inactive | inactive | inactive | inactive | 
O=C(NCCN(CCN(CCN(CCNC(=O)c1cc(O)c(O)c(O)c1)C(=O)c1cc(O)c(O)c(O)c1)C(=O)c1cc(O)c(O)c(O)c1)C(=O)c1cc(O)c(O)c(O)c1)c1cc(O)c(O)c(O)c1 | 4.9 | > 10 | 21 | > 50 | 34 | > 50 | inactive | inactive | inactive | inactive | inactive | inactive | inactive | inactive | inactive | inactive | inactive | inactive | inactive | 4
O=C(NCCCCCCCCCCCCNC(=O)c1ccccc1O)c1ccccc1O | > 250 | > 250 | 248 | > 6.7 | 4.7 | > 6.7 | inactive | inactive | inactive | inactive | inactive | inactive | inactive | inactive | inactive | inactive | inactive | inactive | inactive | 
O=C(NCCCCCCCCCCNC(=O)c1ccc(O)c(O)c1O)c1ccc(O)c(O)c1O | > 50 | > 50 | 100 |  | 11 | > 100 | inactive | inactive | inactive | inactive | inactive | inactive | inactive | inactive | inactive | inactive | inactive | inactive | inactive | 
O=C(OCCCCOC(=O)c1cc(O)c(O)c(O)c1)c1cc(O)c(O)c(O)c1 | > 10 | > 10 | 21 | > 50 | 39 | > 50 | inactive | inactive | inactive | inactive | inactive | inactive | inactive | inactive | inactive | inactive | inactive | inactive | inactive | 
O=C(NCCCCCCCCCCCCNC(=O)c1cccc(O)c1O)c1cccc(O)c1O | > 2 | > 2 | 4.8 | 4.8 | 2 | 108 | inactive | inactive | inactive | inactive | inactive | inactive | inactive | inactive | inactive | inactive | inactive | inactive | inactive | 
O=C(NCCN(CCNC(=O)c1ccc(O)c(O)c1O)CCNC(=O)c1ccc(O)c(O)c1O)c1ccc(O)c(O)c1O | 2.5 | > 10 | 28 | > 5.5 | > 5.5 | > 3.7 | inactive | inactive | inactive | inactive | inactive | inactive | inactive | inactive | inactive | inactive | inactive | inactive | inactive | 10
O=C(NCCCCN(CCCNC(=O)c1ccc(O)c(O)c1O)C(=O)c1ccc(O)c(O)c1O)c1ccc(O)c(O)c1O | 2.6 | > 10 | 27 | > 50 | 34 | > 50 | inactive | inactive | inactive | inactive | inactive | inactive | inactive | inactive | inactive | inactive | inactive | inactive | inactive | 10
